# Measured values: patent US20140294729A1, “METHODS FOR IDENTIFICATION AND USE OF AGENTS TARGETING CANCER STEM CELLS” (Whitehead Institute for Biomedical Research, priority 2008, published 2014)
# Legend:
# Format in all cases: cell-based, human
# HMLERshEcad cells = assay: Resistance to cytotoxic agents, transformed HMLERshCntrl vs HMLERshEcad dose response; conditions: FIG. 2A
# Protocol: (§1) FIGS. 2A-2D depict that passage through the EMT leads to resistance to conventional chemotherapy drugs. FIG. 2A depicts dose response curves of transformed HMLERshCntrl (light gray line) and HMLERshEcad (dark gray line) cells treated with Paclitaxel and Doxorubicin. Dotted line denotes the 50% fraction surviving. […] FIG. 2B depicts the response of immortalized cells to chemotherapy drugs. HMLEshCntrl and HMLEshEcad cells were treated with the indicated drugs at three concentrations for 3 days and assayed for viability using the MTS assay. While Doxorubucin, Actinomycin D, Paclitaxel and Campthotecin are chemotherapeutic drugs, Staurosporine is a general kinase inhibitor that potently induce apoptosis. FIGS. 2C and 2D depict paclitaxel treatment leads to selective expansion of a minority cell population that has undergone an EMT. Control HMLE cells and GFP expressing HMLEshEcad cells were mixed at a ratio of 20:1 and seeded onto 6-well plates in triplicate. DMSO or Paclitaxel at 2.5 nm or 10 nm concentration was added onto the mixed cell populations 1 day after seeding followed by a 3 day incubation. The number of GFP-positive cells at the end of treatment were analyzed by flow cytometry. […] Note the increase in GFP positivity from 5% to 14% upon […] Paclitaxel treatment.
# Since the HMLERsiEcad cells have a 100-fold increase in the frequency of cells capable of seeding tumors, we examined their response to two commonly used chemotherapy drugs, relative to HMLERsiGFP controls. We treated cultured HMLERsiGFP and HMLERsiEcad cells for a period of 3 days with either doxorubicin or paclitaxel, at various concentrations.
# Doxorubicin, paclitaxel, actinomycin D, campthotecin and staurosporine were purchased from Sigma and dissolved in dimethyl sulfoxide (dmso). 5000 cells in 100 ul of medium were plated per well in 96-well plates. 24 hrs after seeding, compounds at the indicated concentration were added to wells (5 wells per each concentration). Dmso treatment was used as negative control. Cell viability was measured after 72 hrs using the CellTiter96 AQueous Assay (Promega) according to manufacturer's instructions. Dose response curves were generated with GraphPad Prism software (GraphPad Software, Inc.).
# HMLEshEcad cells = assay: Co-culture of GFP-labeled HMLEshEcad cells and control HMLE cells (1:20), FACS for GFP positivity
# Protocol: as §1
# To further characterize the observed drug resistance, we paclitaxel-treated co-cultures of GFP-labeled HMLEshEcad cells and unlabeled controls cells (1:20 ratio).
# This was observed independently of whether or not the cell lines had undergone neoplastic transformation. To determine the effect of conventional chemotherapy drugs on a mixture of epithelial cells that have and epithelial cells that have not undergone EMT, we co-mixed GFP-labeled HMLEsiEcad cells with unlabeled HMLEsiGFP cells at a ratio of 1:20, and treated the resulting co-culture with Paclitaxel. This non-stoichiometric mixture provided an internally controlled method to evaluate whether differential drug sensitivity was also manifest under conditions in which epithelial cells having undergone EMT were in the minority.
# For the mix experiments, unlabelled and GFP-labeled cells were mixed at the indicated ratios and seeded onto 6-well plates. Triplicate wells were then treated with dmso or the compounds (paclitaxel, salinomycin, abamectin and blasticidin) for 48 hrs. The cells were washed with PBS, trypsinized and analyzed by FACS for GFP positivity.
# HMLER cells = assay: Growth rate of HMLER cultures after treatment; conditions: FIG. 6B
# Protocol: FIGS. 6A and 6B depict effects of salinomycin on the CSC population in HMLER cell line. (FIG. 6A) HMLER cells were treated with vehicle control (dmso), salinomycin or paclitaxel at the indicated concentrations for 15 days. FACS analysis were performed at the end of treatment to gauge the CD44+/CD24− CSC population (right panels). Note that salinomycin decreases the CD44+/CD24− population from a basal of 4.9% to 0.2%. Treated cultures were also subjected to the mammosphere formation assay (left panels). Number of mammopsheres formed per 1000 cells from each culture are indicated below the representative photographs of assay wells. (FIG. 6B) Growth rates of HMLER cultures after treatment with vehicle control (dmso), salinomycin or paclitaxel at the indicated concentrations in (A) for 15 days.
# We then turned to the critical question of whether the compounds had the general ability to inhibit CSCs in breast cancer cell lines. […] We next compared the effects of salinomycin, control vehicle DMSO and paclitaxel on HMLER cells. […] The CD44+/CD24− fraction was thus 360-fold lower following treatment with salinomycin than with paclitaxel (FIG. 6A). Proliferation of the bulk population was not inhibited following treatment with salinomycin relative to either vehicle- or paclitaxel-treatment (FIG. 6B).
compound,measurement,setting,value
CC(=O)O[C@H]1C(=O)[C@@]2(C)[C@H]([C@H](OC(=O)c3ccccc3)[C@]3(O)C[C@H](OC(=O)[C@H](O)[C@@H](NC(=O)c4ccccc4)c4ccccc4)C(C)=C1C3(C)C)[C@]1(OC(C)=O)CO[C@@H]1C[C@@H]2O [paclitaxel],IC50 for HMLERsiEcad cells relative to IC50 for HMLERsiGFP cells,"HMLERshEcad cells; 3 days, various concentrations",significantly higher
same,resistance of HMLERshEcad cells compared to HMLERshCntrl cells,HMLERshEcad cells,significantly more resistant
same,resistance of HMLERshEcad cells compared to HMLERshCntrl cells,HMLERshEcad cells; listed as Paclitaxel,more resistant
same,increase in HMLEsiEcad cells having undergone EMT,HMLEshEcad cells; 2.5 nM,more modest increase
same,increase in HMLEsiEcad cells having undergone EMT relative to DMSO-treated co-cultures,"HMLEshEcad cells; 10 nM, after 3 days, 1:20 ratio",4 fold
same,increase in the proportion of HMLEshEcad cells compared to DMSO-treated co-cultures,"HMLEshEcad cells; 10 nM, treatment for 4 days, 1:20 ratio",4 fold
same,GFP positivity after treatment (from 5%),HMLEshEcad cells; 3 day incubation,14%
CC[C@@H](C(=O)[C@@H](C)[C@@H](O)[C@H](C)[C@@H]1O[C@@H]([C@@H](CC)C(=O)O)CC[C@@H]1C)[C@H]1O[C@]2(C=C[C@@H](O)[C@]3(CC[C@@](C)([C@H]4CC[C@](O)(CC)[C@H](C)O4)O3)O2)[C@H](C)C[C@@H]1C [salinomycin],proliferation of the bulk population relative to vehicle- or paclitaxel-treatment,HMLER cells,not inhibited
